The values that follow come from the SangsterLogP compilation.

Assay in one data set: not given
The following applies: pH 3.0.
In turn, `N#CC(C#N)=NNc1ccc(OC(F)(F)F)cc1` showed a logD of 3.68.
On the same count and under the same terms, under `CC(=O)Nc1ccc(NN=C(C#N)C#N)cc1` stands 1.83; under `N#CC(C#N)=NNc1ccc(/N=N/c2ccccc2)cc1`, 4.25.

Staying with this data set, now noted: pH 7.2.
`N#CC(C#N)=NNc1ccc(CCCl)cc1` returned a logD of 2.44.

Assay in a further data set: not given
Settings: not given
As to `COC(=O)CS(=O)(=O)c1ccccc1[N+](=O)[O-]`, the log partition coefficient (logP) was 0.95.
As for `CC(C)OC(=O)CS(=O)(=O)c1ccc([N+](=O)[O-])cc1[N+](=O)[O-]`, the logP was 2.01.
Still for that read-out and setting: in the case of `COC(=O)CSc1ccc([N+](=O)[O-])cc1[N+](=O)[O-]` it was 2.03.
For the molecule `COC(=O)CS(=O)c1ccc([N+](=O)[O-])cc1Cl` (centres undefined), the lipophilicity (logP) came out at 1.69.

Assay in another data set: not given
Settings: not given
The source holds these as a separate data set.
The molecule `COc1ccc(C(OC(C)=O)C(Cl)(Cl)Cl)cc1` (centres undefined) returned a log partition coefficient (logP) of 3.72.
Same read-out and setting: under `COP(N)(=S)Oc1ccccc1C(=O)OC(C)C` (centres undefined) stands 2.7.
On the same count and under the same terms, under `CNC(=O)ON=C(CS(C)=O)C(C)(C)C` (centres undefined) stands 2.75; under `CC1(C)[C@H](C(=O)OCc2coc(Cc3ccccc3)c2)[C@@H]1/C=C1/CCSC1=O`, 4.31.

Assay in a further data set: not given
Settings: not given
The source holds these as a separate data set.
Regarding `CCC(C)c1ccc(O)cc1` (centres undefined), the lipophilicity (logP) was 3.32.
The same measure, in the same setting: in the case of `Cc1cc(O)cc(C)c1Cl` it was 3.27; in that of `Cc1cccc(O)c1C`, 2.48.
On the same count and under the same terms, under `CC(C)(C)c1cccc(O)c1` stands 3.05.

Assay in a further data set: not given
Settings: not given
This is another data set of the same source.
On to `O=[N+]([O-])c1nccn1[C@@H]1S[C@H](CO)[C@@H](O)[C@H](O)[C@H]1O`, for which the log partition coefficient (logP) is -0.66.
The same measure, in the same setting: under `CC(=O)OC[C@H]1S[C@@H](n2ccnc2[N+](=O)[O-])[C@H](OC(C)=O)[C@@H](OC(C)=O)[C@@H]1OC(C)=O` stands 0.63; under `CC(=O)OC[C@H]1O[C@@H](n2ccnc2[N+](=O)[O-])[C@H](OC(C)=O)[C@@H](OC(C)=O)[C@@H]1OC(C)=O`, 0.52; under `O=[N+]([O-])c1nccn1[C@@H]1O[C@H](CO)[C@@H](O)[C@H](O)[C@H]1O`, -1.4.

Assay in a further data set: not given
Settings: not given
The source holds these as a separate data set.
For `CCCCNCc1ccccc1`, the log partition coefficient (logP) is 2.59.
Still for that read-out and setting: under `CC(C)NCc1ccccc1` stands 1.83; under `CCNCc1ccccc1`, 1.82; under `CC(N)CCc1ccccc1` (centres undefined), 2.12.

Assay in the next data set: not given
Settings: not given
This is another data set of the same source.
The molecule `CCOC(=O)Oc1ccccc1` showed a logP of 2.18.
Still for that read-out and setting: under `O=C(O)CCCCCOC(=O)Oc1ccccc1` stands 2.56; under `CC(C)(C)OC(=O)Oc1ccccc1`, 3.02.
Same read-out and setting: under `O=C(O)[C@H]1O[C@@H](Oc2ccccc2)[C@H](O)[C@@H](O)[C@@H]1O` stands 0.73.

A further data set in a line: method code SF-AS, from DOI: 10.1021/jf950378u.
Settings: not given
On to `O=C(O)/C=C/c1ccccc1O`, for which the logP stood at 0.62.
Still for that read-out and setting: under `O=c1ccc2ccc(O)c(O)c2o1` stands 0.71; under `Oc1cc(O)c2c(c1)O[C@H](c1ccc(O)c(O)c1)[C@@H](O)C2`, 1.31.
The molecule `COc1ccc([C@@H]2CC(=O)c3c(O)cc(O[C@@H]4O[C@H](CO[C@@H]5O[C@@H](C)[C@H](O)[C@@H](O)[C@H]5O)[C@@H](O)[C@H](O)[C@H]4O)cc3O2)cc1O` registered a logP of 0.32.

Assay in the next data set: not given
Settings: not given
The source holds these as a separate data set.
`CSc1nc(NC(C)(C)C)nc(NC(C)(C)C)n1`: the logP is 4.39.
Same read-out and setting: under `CSc1nc(NC2CC2)nc(NC(C)(C)C)n1` stands 3.38; under `CSc1nc(N)nc(NC(C)(C)C)n1`, 2.54.
As for `CSc1nc(NCCC=O)nc(NC(C)(C)C)n1`, the logP is 2.92.

The nature of a further data set: method code SF-AS, from DOI: 10.1002/ddr.430140205. The conditions noted are these: pH 7.4.
`COc1ccc(CC2CNC(=O)C2)cc1OC` (centres undefined) had a pH-dependent lipophilicity (logD) of 0.58.
Same read-out and setting: under `CSc1ccc(C(=O)c2[nH]c(=O)[nH]c2C)cc1` stands 1.55; under `O=C1CCC(c2ccncc2)=NN1`, 0.18; under `O=C1CCC(c2ccc(-n3ccnc3)cc2)=NN1`, 1.

A further data set in a line: method code SF, from DOI: 10.1016/0378-5173(86)90155-9. The following applies: pH 7.0.
In the case of `CS(=O)(=O)CCCOc1ccc([N+](=O)[O-])cc1`, the logD worked out at 1.1.
Same read-out and setting: in the case of `CSCCCOc1ccc([N+](=O)[O-])cc1` it was 3.24; in that of `NS(=O)(=O)CCCOc1ccc([N+](=O)[O-])cc1`, 0.97; in that of `NC(=O)CCCCOC(=O)c1ccccc1`, 1.39.

A further data set can be described thus: method code SF-AS, from DOI: 10.1016/0223-5234(93)90135-2. The following applies: pH 12.2.
On to `NCCc1cn2ccccc2n1`, for which the log distribution coefficient (logD) came out at 0.59.
Same read-out and setting: in the case of `CN(C)CCc1ccccn1` it was 1.12; in that of `NCCc1nc(-c2ccccc2)cs1`, 2.22.
Still for that read-out and setting: in the case of `CNCCc1ccccn1` it was 0.68.

A further data set can be described thus: method code SF-AS, from DOI: 10.1080/00021369.1974.10861343.
Settings: not given
Turning to `CCOC(=O)C=COc1ccccc1Cl`, the log partition coefficient (logP) is 3.55.
Molecule `COC(=O)C=COc1ccccc1Cl` showed a log partition coefficient (logP) of 3.02.
On the same count and under the same terms, under `COC(=O)/C=C/Oc1ccccc1` stands 2.68.

The data set is the same for the next values; noted with them: pH 3.0.
In turn, `O=C(O)/C=C/Oc1ccc(Cl)cc1Cl` registered a logD of 3.46.

A short description of the next data set: method code SF, from DOI: 10.1038/bjc.1982.190, PMID: 7150475. The following applies: pH 7.4.
In turn, `NC(=O)c1cc(N2CC2)c([N+](=O)[O-])cc1[N+](=O)[O-]` yielded a logD of 0.2.
On the same count and under the same terms, under `O=C1CN(/N=C/c2ccc([N+](=O)[O-])o2)C(=O)N1` stands -0.19.
In the case of `Cn1cnc([N+](=O)[O-])c1S(=O)(=O)Oc1ccccc1`, the log distribution coefficient (logD) amounted to 1.08.
Still for that read-out and setting: in the case of `O=[N+]([O-])c1nccn1CC(O)CCN1CCOCC1` (centres undefined) it was -0.53.

The nature of the next data set: method code SF-HPLC, from DOI: 10.1021/jm100498u, PMID: 20704351. The following applies: pH 7.4.
Molecule `C[C@H](c1ccccc1)n1cncc1C(=O)OCCC1(C)N=N1` had a log distribution coefficient (logD) of 3.6.
On the same count and under the same terms, in the case of `C[C@H](c1ccccc1)n1cncc1C(=O)OCc1ccc(C(=O)c2ccccc2)cc1` it was 4.4; in that of `CCCCCC1(CCO)N=N1`, 2.55; in that of `C[C@H](c1ccccc1)n1cncc1C(=O)OCc1ccc(C2(C(F)(F)F)N=N2)cc1`, 4.3.

Another data set can be described thus: method code SF-AS, from DOI: 10.1002/jps.2600741028, PMID: 4078715.
Settings: not given
With `Cc1cccc(C)c1C#[N+][O-]`, the log partition coefficient (logP) amounted to 2.74.
For the molecule `Cc1ccc(C=[N+]([O-])c2ccccc2)cc1`, the logP worked out at 2.41.
The same measure, in the same setting: under `CC(C)c1ccc(C=[N+]([O-])c2ccccc2)cc1` stands 3.37.
As for `[O-][N+](=Cc1ccccc1)c1ccccc1`, the logP came out at 1.88.

Another data set in a line: method code SF-HPLC, from DOI: 10.1023/a:1016462801968, PMID: 3334410.
Settings: not given
As to `CCCC(=O)OCC(COC(=O)CCC)OCn1cnc2c(=O)[nH]c(N)nc21`, the logP is 0.83.
The same measure, in the same setting: in the case of `COC(=O)OCC(COC(=O)OC)OCn1cnc2c(=O)[nH]c(N)nc21` it was -0.88; in that of `CCC(=O)OCC(COC(=O)CC)OCn1cnc2c(=O)[nH]c(N)nc21`, -0.14.
`Nc1nc2c(ncn2COC(CO)CO)c(=O)[nH]1`: the lipophilicity (logP) is -1.66.

The nature of a further data set: method code SF-HPLC, from DOI: 10.1016/j.bmcl.2010.02.057, PMID: 20231095. The conditions noted are these: pH 7.4.
For `CC(OC(=O)c1sc2cc(O)c(O)cc2c1Cl)OC(=O)C(C)C` (centres undefined), the pH-dependent lipophilicity (logD) is 3.02.
Turning to `CC(C)C(=O)OCOC(=O)c1sc2cc(O)c(O)cc2c1Cl`, the logD is 2.91.
Still for that read-out and setting: in the case of `COC(=O)c1sc2cc(O)c(O)cc2c1Cl` it was 1.51; in that of `CCCOC(=O)c1sc2cc(O)c(O)cc2c1Cl`, 2.45.

A short description of the next data set: method code SF, from DOI: 10.1111/j.2042-7158.1971.tb08772.x, PMID: 4401532. The conditions noted are these: pH 7.2.
On to `CC(=O)Nc1ccc(C=O)cc1`, for which the log distribution coefficient (logD) amounted to 1.25.
Consider `CC(=O)Nc1ccc(C)cc1`, for which the logD was found to be 1.4.
Same read-out and setting: under `CC(=O)Nc1ccc(I)cc1` stands 2.46; under `CC(=O)Nc1ccc([N+](=O)[O-])cc1`, 1.66.

The nature of another data set: method code SF-AS, from DOI: 10.1111/j.2042-7158.1979.tb13606.x, PMID: 41067. The conditions noted are these: pH 1.2.
The molecule `COc1ccc(CCCC(=O)O)cc1` came in with a pH-dependent lipophilicity (logD) of 2.33.
With `CCOc1ccc(CC(=O)O)cc1`, the pH-dependent lipophilicity (logD) turned out to be 1.95.
`O=C(O)CCc1ccc(O)cc1` came in with a logD of 1.16.
`COc1ccc(CC(=O)O)cc1` returned a logD of 1.48.

The nature of a further data set: method code SF-AS, from DOI: 10.1111/j.1476-5381.1975.tb07619.x, PMID: 1182339. The conditions noted are these: pH 10.0.
For the molecule `N=C(N)NC(=O)Nc1ccc([N+](=O)[O-])c(Cl)c1`, the logD stood at 1.79.
With `Cc1cc(NC(=O)NC(=N)N)ccc1Cl`, the logD stood at 2.19.
Still for that read-out and setting: in the case of `N#Cc1ccc(NC(=O)NC(=N)N)cc1Cl` it was 1.9.
Same read-out and setting: in the case of `N=C(N)NC(=O)Nc1ccc(Cl)cc1` it was 1.78.

As a reminder, the logD is the decadic logarithm of the distribution of all forms, ionised or not, between an organic phase and buffer at a given pH. Low values mean lower lipophilicity, high ones higher lipophilicity. Broadly, the logP is the decadic logarithm of the partition coefficient of the neutral form, usually between octanol and water. Higher therefore signals higher lipophilicity.
